# Measurements from patent publication US11578055B2, “Triazacyclododecansulfonamide (“TCD”)-based protein secretion inhibitors” (KEZAR LIFE SCIENCES, priority 2018, dated 2023).
# Legend:
# [1] = tested on: PD1 signal sequence plus 10 amino acids fused to Gaussia Luciferase (PD1-ss+10aa/Gaussia Luciferase); experiment: Dox Induced PD1-ss-Gluc Assay; type: cell-based; conditions: 24 hr, 293FRT/TO; read-out: 24 hr Dox Inducible PD1ssGluc 293FRT/TO: Mean IC50
# Summary of the method: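 Stable Flp-In 293 T-REx line expressing the fusion under tetracycline-inducible control, plated the day before assay. Compound dilutions added with doxycycline and incubated at 37 °C, 5% CO2; unspecified stereocentres mean data refer to stereoisomer mixtures.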
# [2] = tested on: full length PD1 (amino acids 1-288) fused to Firefly Luciferase; experiment: Dox Induced PD1-FL-Gluc Assay; type: cell-based; conditions: 24 hr, 293FRT/TO; read-out: 24 hr Dox Inducible PD1FLFluc 293FRT/TO: Mean IC50
# Text: FIp-In 293 T-REx™ cells were transfected with pcDNA™5/FRT/TO plasmid inserted with cDNA encoding Firefly Luciferase fused to the 3′ end of cDNA encoding full length PD1 (amino acids 1-288). Transfected cells were selected for resistance to the selectable markers Hygromycin and Blasticidin to create a stable cell line that contained the PD1-FL/Firefly Luciferase cDNA insert whose expression was regulated under the T-REx™ system. The day before assay, cells were trypsinized and plated in 384-well tissue culture plates. The next day, compound dilutions in DMSO/media containing doxycycline were added to the wells and incubated at 37° C., 5% CO2.
# For chemical structures that include one or more stereoisomers, but are illustrated without indicating stereochemistry, the assay data refers to a mixture of stereoisomers.
# [3] = tested on: full length TNFα (amino acids 1-233) fused to Gaussia Luciferase; experiment: Dox Induced TNFα-FL-Gluc Assay; type: cell-based; conditions: 24 hr, 293FRT/TO; read-out: 24 hr Dox Inducible TNFaFLGluc 293FRT/TO: Mean IC50
# Summary of the method: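 Stable Flp-In 293 T-REx line expressing doxycycline-inducible full-length TNFα fused to Gaussia luciferase; cells plated the day before, then treated with compound dilutions in doxycycline-containing medium at 37° C, 5% CO2. Unspecified stereocentres mean stereoisomer mixtures were tested.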
# [4] = tested on: full length IL-2 (amino acids 1-153) fused to Gaussia Luciferase; experiment: Dox Induced IL2-FL-Gluc Assay; type: cell-based; conditions: 24 hr, 293FRT/TO; read-out: 24 hr Dox Inducible IL2FLGluc 293FRT/TO: Mean IC50
# Summary of the method: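 Flp-In 293 T-REx stable line expressing full-length IL-2 (aa 1-153) with C-terminal Gaussia luciferase fusion under doxycycline-inducible control. Cells plated the day before; compound dilutions added in DMSO/media containing doxycycline, incubated at 37° C, 5% CO2.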
# [5] = tested on: multiple myeloma cell line NCl-H929; experiment: H929 Cell Viability Assay; type: cell-based, human; conditions: Homo sapiens, NCI-H929, 48 h, H929, read-out: 48 hr H929 Viability Celltiter-Glo: Mean EC50
# Summary of the method: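 NCI-H929 myeloma cells in RPMI 1640 with 10% FBS were treated with compound dilutions for 48 h at 37 °C, and viability was then read by CellTiter-Glo luminescence. Compounds drawn without stereochemistry were tested as stereoisomer mixtures.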
# [6] = tested on: multiple myeloma cell line U266B1; experiment: U266 Cell Viability Assay; type: cell-based, human; conditions: Homo sapiens, U-266; 48 hr, U266; read-out: 48 hr U266 Viability Celltiter-Glo: Mean EC50
# Summary of the method: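 U266B1 myeloma cells in RPMI 1640 with 10% FBS were treated with compound dilutions for 48 h at 37° C, 5% CO2. Viability was read as CellTiter-Glo luminescence. Data for structures drawn without stereochemistry refer to stereoisomer mixtures.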
# [7] = In Vitro Microsome Stability Assay (human); type: in vitro ADME; conditions: human, 30 min, NADPH
# Summary of the method: (§1)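 Species liver microsomes in potassium phosphate buffer were preincubated at 37 °C for 3–5 min with test compound (added from 0.25 mM DMSO stock), then started with NADPH. Samples at 0 and 30 min were quenched with acetonitrile containing internal standard and analysed by LC-MS/MS; % remaining at 30 min used analyte/IS AUC ratios relative to t=0.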
# [8] = In Vitro Microsome Stability Assay (mouse); type: in vitro ADME; conditions: mouse, 30 min, NADPH
# Summary of the method: as §1
# [9] = In Vitro Microsome Stability Assay (rat); type: in vitro ADME; conditions: rat, 30 min, NADPH
# Summary of the method: as §1
# [10] = In Vitro Microsome Stability Assay (monkey); type: in vitro ADME; conditions: monkey, 30 min, NADPH
# Summary of the method: as §1
Compound,IC50 [1] [nM],IC50 [2] [nM],IC50 [3] [nM],IC50 [4] [nM],EC50 [5] [nM],EC50 [6] [nM],Liver Microsome Stability-% Left after 30 min w/ NADPH (%) Human [7] [%],Liver Microsome Stability-% Left after 30 min w/ NADPH (%) Mouse [8] [%],Liver Microsome Stability-% Left after 30 min w/ NADPH (%) Rat [9] [%],Liver Microsome Stability-% Left after 30 min w/ NADPH (%) Monkey [10] [%]
"CC1CCN(S(=O)(=O)N2CCCN(CC3CCCCC3)CCCN(S(=O)(=O)c3ccc(N(C)C)cc3)CC3(CC3)C2)CC1 [A22, 4-{[9-(cyclohexylmethyl)-13-[(4-methylpiperidin-1-yl)sulfonyl]-5,9,13-triazaspiro[2.11]tetradecan-5-yl]sulfonyl}-N,N-dimethylaniline]",156,404,6380,370,6670,> 25000,0.16,0.12,0.4,0.11
"CN(C)c1ccc(S(=O)(=O)N2CCCN(CC3CCCCC3)CCCN(S(=O)(=O)N3CCC(c4ccccc4)CC3)CC3(CC3)C2)cc1 [A29, 4-{[9-(cyclohexylmethyl)-13-[(4-phenylpiperidin-1-yl)sulfonyl]-5,9,13-triazaspiro[2.11]tetradecan-5-yl]sulfonyl}-N,N-dimethylaniline]",241,591,> 25000,447,> 25000,> 25000,39.6,32.4,43.3,19.5
"C=C1CN(S(=O)(=O)c2ccc(N(C)C)cc2)CCCN(CC2CCCCC2)CCCN(S(=O)(=O)N2CCN(c3ccccc3)CC2)C1 [A36, 4-{[9-(cyclohexylmethyl)-3-methylidene-5-[(4-phenylpiperazin-1-yl)sulfonyl]-1,5,9-triazacyclododecan-1-yl]sulfonyl}-N,N-dimethylaniline]",118,319,> 21800,301,> 15400,> 25000,6.69,1.85,0.94,1.54
"C=C1CN(S(=O)(=O)c2ccc(N(C)C)cc2)CCCN(CC2CCCCC2)CCCN(S(=O)(=O)N2CCC[C@@H](c3ccccc3)C2)C1 [A43, 4-{[9-(cyclohexylmethyl)-3-methylidene-5-{[(3S)-3-phenylpiperidin-1-y]sulfonyl}-1,5,9-triazacyclododecan-1-yl]sulfonyl}-N,N-dimethylaniline]",46.9,161,1210,133,2970,> 25000,15.4,20.1,22.3,12
"C=C1CN(S(=O)(=O)c2ccc(N(C)C)cc2)CCCN(CC2CCCCC2)CCCN(S(=O)(=O)N2CCc3ccccc3C2)C1 [A50, 4-{[9-(cyclohexylmethyl)-3-methylidene-5-(1,2,3,4-tetrahydroisoquinoline-2-sulfonyl)-1,5,9-triazacyclododecan-1-yl]sulfonyl}-N,N-dimethylaniline]",22.2,74.1,661,57,1010,6540,1.32,70.1,3.6,0.79
"C=C1CN(S(=O)(=O)c2ccc(N(C)C)cc2)CCCN(CC2CCCCC2)CCCN(S(=O)(=O)N2CC=C(c3ccc(Cl)cc3)CC2)C1 [A74, 4-[(5-{[4-(4-chlorophenyl)-1,2,3,6-tetrahydropyridin-1-yl]sulfonyl}-9-(cyclohexylmethyl)-3-methylidene-1,5,9-triazacyclododecan-1-yl)sulfonyl]-N,N-dimethylaniline]",77.4,258,> 25000,248,> 25000,> 25000,56.3,53.7,55.7,60.6
"CN(C)c1ccc(S(=O)(=O)N2CCCN(CC3CCCCC3)CCCN(S(=O)(=O)N3CCC(c4ccccc4)CC3)C/C(=N/O)C2)cc1 [A75, 9-(cyclohexylmethyl)-1-((4-(dimethylamino)phenyl)sulfonyl)-5-((4-phenylpiperidin-1-yl)sulfonyl)-1,5,9-triazacyclododecan-3-one oxime]",104,256,3780,233,3030,> 25000,3.08,2.75,7.54,0.28
"C[C@@H]1CN(S(=O)(=O)c2ccc(N(C)C)cc2)CCCN(CC2CCCCC2)CCCN(S(=O)(=O)N2CCC(c3ccccc3)CC2)C1 [A76, 4-{[(3 R)-9-(cyclohexylmethyl)-3-methyl-5-[(4-phenylpiperidin-1-yl)sulfonyl]-1,5,9-triazacyclododecan-1-yl]sulfonyl}-N,N-dimethylaniline]",> 25000,> 25000,> 25000,> 25000,> 25000,> 25000,53.1,28.6,33.9,35.7
"C[C@H]1CN(S(=O)(=O)c2ccc(N(C)C)cc2)CCCN(CC2CCCCC2)CCCN(S(=O)(=O)N2CCC(c3ccccc3)CC2)C1 [A77, 4-{[(3S)-9-(cyclohexylmethyl)-3-methyl-5-[(4-phenylpiperidin-1-yl)sulfonyl]-1,5,9-triazacyclododecan-1-yl]sulfonyl}-N,N-dimethylaniline]",95,338,5540,360,4010,> 25000,30.1,37.3,32.5,20.8
